# Laboratory results published in ChEMBL document CHEMBL4028900, “Design of Novel 3-Pyrimidinylazaindole CDK2/9 Inhibitors with Potent In Vitro and In Vivo Antitumor Efficacy in a Triple-Negative Breast Cancer Model” (J Med Chem, 2017).
# Columns and labels:
# [1] = target: CDK2/Cyclin A2 (Homo sapiens) (UniProt P24941+P20248); conditions: at 500 nM
# Description: Inhibition of CDK2/cyclin A (unknown origin) at 500 nM using histone H1 as substrate after 30 mins in presence of [33P]-gamma-ATP relative to control
# [2] = target: CDK9/cyclin T1 (Homo sapiens) (UniProt O60563+P50750); conditions: at 500 nM
# [3] = test system: SH-SY5Y; test: Antiproliferative activity against human SH-SY5Y cells after 24 hrs by MTT assay; type: functional, cell-based
# [4] = test system: HCT-116; test: Antiproliferative activity against human HCT116 cells after 72 hrs by SRB assay; conditions: HCT-116, 72 h
# [5] = Thermodynamic equilibrium solubility of the compound in PBS
# [6] = Thermodynamic equilibrium solubility of the compound in SIF
# [7] = Thermodynamic equilibrium solubility of the compound in SGF
# [8] = Thermodynamic equilibrium solubility of the compound in water
# [9] = target: CDK2/Cyclin A2 (Homo sapiens, UniProt P24941); test: Inhibition of CDK2/cyclin A (unknown origin) using histone H1 as substrate after 30 mins in presence of [33P]-gamma-ATP; type: protein-complex assay
# [10] = target: CDK9/cyclin T1 (Homo sapiens, UniProt P50750); type: protein-complex assay
# [11] = Volume of distribution in BALB/c mouse at 2.5 mg/kg, iv by LC/MS-MS analysis; type: ADME, organism-based; conditions: in vivo
# [12] = Plasma concentration in BALB/c mouse at 2.5 mg/kg, iv at 1 hr by LC/MS-MS analysis; type: ADME, organism-based
# [13] = test system: 4T1; test: Antiproliferative activity against mouse 4T1 cells after 24 hrs by MTT assay; conditions: 4T1, 24 h
# [14] = Plasma concentration in BALB/c mouse at 2.5 mg/kg, iv at 0.25 hrs by LC/MS-MS analysis; type: ADME, organism-based
# [15] = Half life in BALB/c mouse at 2.5 mg/kg, iv by LC/MS-MS analysis; type: ADME, organism-based; conditions: in vivo
# [16] = test system: BT-549; test: Antiproliferative activity against human BT549 cells
# [17] = Antiproliferative activity against HEK cells; conditions: Homo sapiens, HEK293
# [18] = Plasma concentration in BALB/c mouse at 2.5 mg/kg, iv at 4 hrs by LC/MS-MS analysis; type: ADME, organism-based
# [19] = test system: MCF7; test: Antiproliferative activity against human MCF7 cells
# [20] = Plasma concentration in BALB/c mouse at 2.5 mg/kg, iv at […] by LC/MS-MS analysis; type: ADME, organism-based
# [21] = AUC (0 to infinity) in BALB/c mouse at 2.5 mg/kg, iv by LC/MS-MS analysis; type: ADME, organism-based; parameters: dose 2.5 mg/kg, time infinity, route intravenous; conditions: in vivo
# [22] = Plasma concentration in BALB/c mouse at 2.5 mg/kg, iv at 0.5 hrs by LC/MS-MS analysis; type: ADME, organism-based
# [23] = AUC (0 to t) in BALB/c mouse at 2.5 mg/kg, iv by LC/MS-MS analysis; type: ADME, organism-based; conditions: in vivo
# [24] = test system: MDA-MB-468; test: Antiproliferative activity against human MDA-MB-468 cells
# [25] = test system: MDA-MB-231; test: Antiproliferative activity against human MDA-MB-231 cells
# [26] = Clearance in BALB/c mouse at 2.5 mg/kg, iv by LC/MS-MS analysis; type: ADME, organism-based; conditions: in vivo
# [27] = Initial concentration in BALB/c mouse at 2.5 mg/kg, iv by LC/MS-MS analysis; type: ADME, organism-based; conditions: in vivo
# [28] = test system: T47D; test: Antiproliferative activity against human T47D cells after 72 hrs by SRB assay
# [29] = Plasma concentration in BALB/c mouse at 2.5 mg/kg, iv at 2 hrs by LC/MS-MS analysis; type: ADME, organism-based
# Sequence of CDK9/cyclin T1 (O60563 whole entry): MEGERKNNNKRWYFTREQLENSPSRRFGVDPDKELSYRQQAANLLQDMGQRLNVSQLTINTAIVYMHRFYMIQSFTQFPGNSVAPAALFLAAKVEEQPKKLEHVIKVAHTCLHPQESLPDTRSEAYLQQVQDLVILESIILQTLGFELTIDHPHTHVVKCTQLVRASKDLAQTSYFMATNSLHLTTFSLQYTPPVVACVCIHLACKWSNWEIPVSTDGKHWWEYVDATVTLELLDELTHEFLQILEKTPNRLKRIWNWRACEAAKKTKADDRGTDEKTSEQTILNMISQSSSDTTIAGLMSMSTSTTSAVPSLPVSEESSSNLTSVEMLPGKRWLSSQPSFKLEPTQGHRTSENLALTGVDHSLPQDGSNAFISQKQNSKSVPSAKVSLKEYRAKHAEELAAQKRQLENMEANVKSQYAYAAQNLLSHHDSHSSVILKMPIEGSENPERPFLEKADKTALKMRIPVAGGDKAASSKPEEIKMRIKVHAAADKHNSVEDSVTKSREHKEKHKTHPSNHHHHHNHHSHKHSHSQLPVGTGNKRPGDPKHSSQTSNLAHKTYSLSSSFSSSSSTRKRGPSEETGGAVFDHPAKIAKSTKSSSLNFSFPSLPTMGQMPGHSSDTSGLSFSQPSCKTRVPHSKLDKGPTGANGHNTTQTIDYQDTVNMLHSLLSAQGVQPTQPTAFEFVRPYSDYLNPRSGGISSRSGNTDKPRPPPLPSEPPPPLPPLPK
# Sequence of CDK9/cyclin T1 (P50750 whole entry): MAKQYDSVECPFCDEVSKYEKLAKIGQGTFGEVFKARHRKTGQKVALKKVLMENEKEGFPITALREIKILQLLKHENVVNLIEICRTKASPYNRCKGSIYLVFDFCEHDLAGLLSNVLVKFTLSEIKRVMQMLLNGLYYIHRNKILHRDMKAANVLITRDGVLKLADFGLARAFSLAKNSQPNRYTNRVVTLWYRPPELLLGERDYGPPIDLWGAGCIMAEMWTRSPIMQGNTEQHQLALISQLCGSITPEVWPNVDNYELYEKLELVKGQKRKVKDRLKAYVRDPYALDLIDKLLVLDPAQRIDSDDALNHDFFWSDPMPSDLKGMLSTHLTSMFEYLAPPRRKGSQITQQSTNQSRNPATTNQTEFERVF
structure (smiles),measurement,setting,value
CC(=O)Nc1ccc(S(=O)(=O)n2cc(-c3ccnc(N)n3)c3cccnc32)cc1,inhibition,[1],36.3%
same,inhibition,[2],44.2%
Nc1nccc(-c2c[nH]c3ncc(-c4ccc(OC(F)(F)F)cc4)cc23)n1,IC50,[3],400 nM
same,IC50,[4],1500 nM
Nc1nccc(-c2c[nH]c3ncc(-c4ccoc4)cc23)n1,solubility thermodynamic,[5],10 µg/mL
same,solubility thermodynamic,[6],1 µg/mL
same,solubility thermodynamic,[7],800 µg/mL
same,solubility thermodynamic,[8],20 µg/mL
same,IC50,[3],900 nM
same,IC50,[4],700 nM
Nc1nccc(-c2c[nH]c3ncc(-c4cccc(C(F)(F)F)c4)cc23)n1,inhibition,[1],93.4%
same,IC50,[9],10 nM
same,inhibition,[2],86.5%
same,IC50,[10],47 nM
Nc1nccc(-c2c[nH]c3ncc(-c4ccsc4)cc23)n1,inhibition,[1],95.1%
same,IC50,[9],1 nM
same,inhibition,[2],93.5%
same,IC50,[10],35 nM
same,IC50,[3],3300 nM
same,IC50,[4],600 nM
c1cnc2[nH]cc(-c3ccnc(N4CCCC4)n3)c2c1,inhibition,[1],78.3%
same,IC50,[9],160 nM
same,inhibition,[2],77.2%
same,IC50,[10],450 nM
Nc1nccc(-c2c[nH]c3ncc(-c4cccnc4)cc23)n1,solubility thermodynamic,[5],200 µg/mL
same,solubility thermodynamic,[6],1 µg/mL
same,solubility thermodynamic,[7],800 µg/mL
same,solubility thermodynamic,[8],80 µg/mL
same,IC50,[3],1000 nM
same,IC50,[4],700 nM
Nc1nccc(-c2cn(S(=O)(=O)c3ccc(Br)cc3)c3ncccc23)n1,inhibition,[1],28.1%
same,inhibition,[2],31.2%
Nc1nccc(-c2c[nH]c3ncc(-c4ccc(Cl)cc4)cc23)n1,solubility thermodynamic,[5],120 µg/mL
same,solubility thermodynamic,[6],113 µg/mL
same,solubility thermodynamic,[7],74.4 µg/mL
same,solubility thermodynamic,[8],57.4 µg/mL
same,IC50,[3],900 nM
same,IC50,[4],500 nM
CN1CCN(c2nccc(-c3c[nH]c4ncccc34)n2)CC1,inhibition,[1],71.6%
same,IC50,[9],350 nM
same,inhibition,[2],70.5%
same,IC50,[10],700 nM
COc1ccc2[nH]c(-c3cnc4[nH]cc(-c5ccnc(N)n5)c4c3)cc2c1,inhibition,[1],90.2%
same,IC50,[9],16 nM
same,inhibition,[2],82.4%
same,IC50,[10],342 nM
c1ccc2c(CCNc3nccc(-c4c[nH]c5ncccc45)n3)c[nH]c2c1,inhibition,[1],89.7%
same,IC50,[9],10 nM
same,inhibition,[2],88%
same,IC50,[10],52 nM
COc1ccc2ccccc2c1-c1cnc2[nH]cc(-c3ccnc(N)n3)c2c1,inhibition,[1],24.2%
same,IC50,[9],1090 nM
same,inhibition,[2],47.4%
same,IC50,[10],625 nM
c1cnc2[nH]cc(-c3ccnc(N4CCCCC4)n3)c2c1,inhibition,[1],74%
same,IC50,[9],300 nM
same,inhibition,[2],71.9%
same,IC50,[10],800 nM
c1ccc(CCNc2nccc(-c3c[nH]c4ncccc34)n2)cc1,inhibition,[1],92.5%
same,IC50,[9],10 nM
same,solubility thermodynamic,[5],< 5 µg/mL
same,solubility thermodynamic,[6],> 5 µg/mL
same,inhibition,[2],92.4%
same,IC50,[10],20 nM
same,solubility thermodynamic,[7],1500 µg/mL
same,solubility thermodynamic,[8],< 5 µg/mL
same,IC50,[4],560 nM
COc1ccc(CCNc2nccc(-c3c[nH]c4ncccc34)n2)cc1OC,inhibition,[1],89.2%
same,IC50,[9],22 nM
same,inhibition,[2],85%
same,IC50,[10],59 nM
Nc1nccc(-c2cn(S(=O)(=O)c3ccc(F)cc3)c3ncccc23)n1,inhibition,[1],22.6%
same,inhibition,[2],40%
Nc1nccc(-c2cn(S(=O)(=O)c3ccc(OC(F)(F)F)cc3)c3ncccc23)n1,inhibition,[1],31.3%
same,inhibition,[2],54.4%
Nc1nccc(-c2cn(S(=O)(=O)c3ccc(C(F)(F)F)cc3)c3ncccc23)n1,inhibition,[1],28.4%
same,inhibition,[2],50.9%
CCc1ccccc1-c1cnc2[nH]cc(-c3ccnc(N)n3)c2c1,inhibition,[1],79.3%
same,IC50,[9],75 nM
same,inhibition,[2],70.4%
same,IC50,[10],213 nM
Cc1cccc(-c2cnc3[nH]cc(-c4ccnc(N)n4)c3c2)c1,inhibition,[1],84.8%
same,inhibition,[2],82.6%
Cn1cncc1S(=O)(=O)n1cc(-c2ccnc(N)n2)c2cccnc21,inhibition,[1],55.2%
same,inhibition,[2],50.3%
Nc1nccc(-c2c[nH]c3ncccc23)n1 [MERIOLIN 1],Vd,[11],36.5 L/kg
same,concentration at 1 h,[12],4.5 ng/mL
same,IC50,[13],2500 nM
same,solubility thermodynamic,[5],89 µg/mL
same,concentration at 0.25 h,[14],34.1 ng/mL
same,solubility thermodynamic,[6],87.7 µg/mL
same,half-life,[15],28.2 min
same,IC50,[16],7 µM
same,IC50,[17],36 µM
same,concentration at 4 h,[18],0.8 ng/mL
same,IC50,[19],6 µM
same,concentration at […],[20],167 ng/mL
same,AUC(0-inf),[21],46.9 ng·h/mL
same,concentration at 0.5 h,[22],12.6 ng/mL
same,AUC(0-t),[23],46.2 ng·h/mL
same,IC50,[24],13 µM
same,IC50,[25],6 µM
same,clearance,[26],897 mL/min/kg
same,IC50,[10],30 nM
same,C0,[27],230 ng/mL
same,IC50,[28],8 µM
same,concentration at 2 h,[29],1 ng/mL
same,solubility thermodynamic,[7],352 µg/mL
same,solubility thermodynamic,[8],95.8 µg/mL
same,IC50,[4],1800 nM
Nc1nccc(-c2c[nH]c3ncc(-c4cc5ccccc5s4)cc23)n1,inhibition,[1],92%
same,IC50,[9],12 nM
same,inhibition,[2],86.4%
same,IC50,[10],82 nM
Nc1nccc(-c2c[nH]c3ncc(-c4cccc5ccccc45)cc23)n1,inhibition,[1],79.2%
same,IC50,[9],182 nM
same,inhibition,[2],84%
same,IC50,[10],159 nM
Nc1nccc(-c2c[nH]c3ncc(-c4cc5ccccc5o4)cc23)n1,inhibition,[1],87.9%
same,IC50,[9],23 nM
same,inhibition,[2],85%
same,IC50,[10],93 nM
CSc1ccccc1-c1cnc2[nH]cc(-c3ccnc(N)n3)c2c1,inhibition,[1],78.7%
same,IC50,[9],24 nM
same,inhibition,[2],93.7%
same,IC50,[10],45 nM
COc1ccc(CCNc2nccc(-c3c[nH]c4ncccc34)n2)cc1,inhibition,[1],97.7%
same,IC50,[9],4 nM
same,inhibition,[2],91%
same,IC50,[10],38 nM
same,IC50,[4],9500 nM
Nc1nccc(-c2cn(S(=O)(=O)c3ccc4c(c3)OCCO4)c3ncccc23)n1,inhibition,[1],48.7%
same,inhibition,[2],52.2%
c1cnc2[nH]cc(-c3ccnc(N4CCOCC4)n3)c2c1,inhibition,[1],73.3%
same,IC50,[9],231 nM
same,inhibition,[2],72.9%
same,IC50,[10],642 nM
